# Literature values, collected in patent US20220323396A1, “COMPOSITIONS AND METHODS FOR TREATING VIRAL INFECTION USING ANTIVIRAL COCKTAILS” (priority 2020, published 2022).
# Assays:
# human tryptase = human tryptase (Homo sapiens, UniProt Q15661)
# thrombin = thrombin (Homo sapiens, UniProt P00734); settings: values ranging; potent, specific and reversible inhibition
# Chain of human tryptase (Q15661 31-275): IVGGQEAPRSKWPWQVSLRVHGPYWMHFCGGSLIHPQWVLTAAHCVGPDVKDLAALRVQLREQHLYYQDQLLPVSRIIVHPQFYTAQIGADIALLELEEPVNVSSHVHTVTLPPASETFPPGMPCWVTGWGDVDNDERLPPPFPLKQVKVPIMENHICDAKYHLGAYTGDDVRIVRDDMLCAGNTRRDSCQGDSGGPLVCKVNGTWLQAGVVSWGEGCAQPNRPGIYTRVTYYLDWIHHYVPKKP
smiles,measurement,setting,value
N=C(N)c1ccc2cc(OC(=O)c3ccc(N=C(N)N)cc3)ccc2c1 [Nafamostat],IC50,human tryptase,0.016 nM
same,IC50,thrombin,330 to 1900 nM
